# Measurements as given in publication PMC3348135, “Identification of New Agonists and Antagonists of the Insect Odorant Receptor Co-Receptor Subunit” (PLoS ONE, 2012).
# Assays:
# Dmel\Orco + Dmel\Or35a [1] = molecular target: T1, Dmel\Orco + Dmel\Or35a (Drosophila melanogaster, UniProt Q9VNB5); assay: Agonist activation of Dmel\Orco + Dmel\Or35a in Xenopus oocytes, two-electrode voltage clamp; type: cell-based; settings: for Response amplitude as percentage of response to 100 µM OLC3, Dmel\Orco + Dmel\Or35a: 100 µM compound, mean ± SEM, n=3-8
# T1 construct: expressed in transfected cells; host or cells: Xenopus laevis oocytes (cRNA injection, pGEMHE)
# T1 sequence (Q9VNB5 1-486): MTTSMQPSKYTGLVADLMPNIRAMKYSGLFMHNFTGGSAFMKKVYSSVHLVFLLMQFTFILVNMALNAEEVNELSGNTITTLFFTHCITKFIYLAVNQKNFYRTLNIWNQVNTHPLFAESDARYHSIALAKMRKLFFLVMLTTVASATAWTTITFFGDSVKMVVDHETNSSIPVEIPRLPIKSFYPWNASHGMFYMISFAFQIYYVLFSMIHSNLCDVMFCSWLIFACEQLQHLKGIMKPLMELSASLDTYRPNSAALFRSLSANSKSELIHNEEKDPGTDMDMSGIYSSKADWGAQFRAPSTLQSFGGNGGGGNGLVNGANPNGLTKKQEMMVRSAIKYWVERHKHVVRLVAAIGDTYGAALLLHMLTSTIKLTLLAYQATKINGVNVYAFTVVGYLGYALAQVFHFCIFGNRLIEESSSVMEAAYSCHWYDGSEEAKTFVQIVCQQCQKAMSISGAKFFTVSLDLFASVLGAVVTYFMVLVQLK
# T1 sequence (Q9V3Q2 1-409 partner): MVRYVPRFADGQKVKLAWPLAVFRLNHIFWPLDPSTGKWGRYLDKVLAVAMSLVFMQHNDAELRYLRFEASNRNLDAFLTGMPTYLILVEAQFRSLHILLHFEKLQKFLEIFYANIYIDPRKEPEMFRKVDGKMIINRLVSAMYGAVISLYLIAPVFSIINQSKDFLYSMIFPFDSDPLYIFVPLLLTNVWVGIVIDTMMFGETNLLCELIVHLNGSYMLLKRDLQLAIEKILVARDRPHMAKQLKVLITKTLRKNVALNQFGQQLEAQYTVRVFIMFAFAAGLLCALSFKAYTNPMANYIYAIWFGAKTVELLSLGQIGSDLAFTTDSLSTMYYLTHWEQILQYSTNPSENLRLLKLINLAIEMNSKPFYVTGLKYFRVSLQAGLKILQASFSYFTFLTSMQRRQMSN
# Experimental: (§1) Oocytes were surgically removed from mature Xenopus laevis frogs. Follicle cells were removed by treatment with Collagenase B (Boehringer Mannhem) for 2 hours at room temperature. Capped cRNA encoding each DmOR subunit was generated using mMessage mMachine kits (Ambion). For heteromeric ORs, 25 ng of cRNA encoding each OR subunit was injected into Stage V-VI Xenopus oocytes. For expression of Orco alone, 50 ng of cRNA was injected. Oocytes were incubated at 18°C in Barth’s saline (in mM: 88 NaCl, 1 KCl, 2.4 NaHCO3, 0.3 CaNO3, 0.41 CaCl2, 0.82 MgSO4, 15 HEPES, pH 7.6, and 150 µg/ml ceftazidime) for 2–5 days prior to electrophysiological recording.
# (§2) Odorant and Orco ligand induced currents were recorded under two-electrode voltage clamp in Xenopus laevis oocytes expressing ORs, using an automated parallel electrophysiology system (OpusExpress 6000A; Molecular Devices). Oocytes were perfused with ND96 (in mM: 96 NaCl, 2 KCl, 1 CaCl2, 1 MgCl2, 5 HEPES, pH 7.5). Odorant stock solutions (0.5 or 1 M) and Orco ligand stock solutions (100 mM) were prepared in DMSO and diluted in ND96. Unless otherwise noted, applications were for 60 sec at a flow rate of 1.0 ml/min, with extensive washing in ND96 (9 or 20 min at 4.6 ml/min) between applications. Micropipettes were filled with 3 M KCl and had resistances of 0.2−2.0 MΩ. The holding potential was −70 mV. Current responses, filtered (4-pole, Bessel, low pass) at 20 Hz (−3 db) and sampled at 100 Hz, were captured and stored using OpusXpress 1.1 software (Molecular Devices).
# (§3) Initial analysis of electrophysiological data was done using Clampfit 9.1 software (Molecular Devices). Curve fitting and statistical analyses were done using Prism 5 (Graphpad). Concentration-response data were fit to the equation: I = Imax/(1+(EC50/X)^n) where I represents the current response at a given concentration of odorant, X; Imax is the maximal response; EC50 is the concentration of agonist yielding a half maximal response; n is the apparent Hill coefficient. Concentration-inhibition data were fit to the equation: I = Imax/(1+(X/IC50)^n) where I represents the current response at a given concentration of inhibitor, X; Imax is the maximal response in the absence of inhibitor; IC50 is the concentration of inhibitor present that still allows a half maximal response from odorant; n is the apparent Hill coefficient. Statistical significance was assessed using a two-tailed unpaired t test, an F test, or a one-way analysis of variance followed by the Bonferroni’s post-test, as appropriate.
# Dmel\Orco [2] = molecular target: T2, Dmel\Orco (Drosophila melanogaster, UniProt Q9VNB5); assay: Agonist activation of homomeric Dmel\Orco in Xenopus oocytes, two-electrode voltage clamp; type: cell-based; settings: for Response amplitude as percentage of response to 100 µM OLC3, Dmel\Orco: 100 µM compound, mean ± SEM, n=3-8
# T2 construct: expressed in transfected cells; host or cells: Xenopus laevis oocytes (cRNA injection, pGEMHE)
# T2 sequence (Q9VNB5 1-486): T1 sequence (Q9VNB5 1-486)
# Experimental: as §1, §2, §3
# Cqui\Orco + Cqui\Or10 = Cqui\Orco + Cqui\Or10 (Culex quinquefasciatus, UniProt D5LMR7+Q309I4); assay: Activation of Cqui\Orco + Cqui\Or10 in Xenopus oocytes, two-electrode voltage clamp; type: cell-based; settings: 100 µM compound, mean ± SEM, n=3-8
# Experimental: as §1, §2, §3
# Cqui\Orco = assay: Agonist activation of homomeric Cqui\Orco in Xenopus oocytes, two-electrode voltage clamp; type: cell-based, Culex quinquefasciatus; settings: 100 µM compound; mean ± SEM, n=3-8
# Onub\Orco + Onub\Or1 = assay: Agonist activation of Onub\Orco + Onub\Or1 in Xenopus oocytes, two-electrode voltage clamp; type: cell-based, Ostrinia nubilalis; settings: 100 µM compound; mean ± SEM, n=3-8
# Dmel\Orco [3] = molecular target: T2, Dmel\Orco; assay: Inhibition of OLC12 activation of Dmel\Orco in Xenopus oocytes; type: cell-based
# Experimental: as §1, §2
# (§4) In inhibition assays, oocytes were exposed to 60 sec applications of OLC12 with 9 min washes between applications (Fig. 3 and 4) or 60 sec applications of odorant with 20 min washes between applications (Fig. 5). Oocytes were then exposed to a 90 sec application of antagonist candidate, immediately followed by a 60 sec co-application of antagonist candidate and OLC12 or odorant. Oocytes were then exposed to a final 60 sec application of OLC12 or odorant. The current response in the presence of antagonist candidate was compared to the preceding response(s) to OLC12 (or odorant) alone.
# as §3
# Dmel\Orco + Dmel\Or35a [4] = molecular target: T1, Dmel\Orco + Dmel\Or35a; assay: Inhibition of OLC12 activation of Dmel\Orco + Dmel\Or35a in Xenopus oocytes; type: cell-based; settings: activated by 10 µM OLC12 (EC25); read-out: IC50, Dmel\Orco + Dmel\Or35a (activated by 10 µM OLC12)
# Experimental: as §1, §2, §4, §3
# Chain of Cqui\Orco + Cqui\Or10 (D5LMR7 entry or part of it): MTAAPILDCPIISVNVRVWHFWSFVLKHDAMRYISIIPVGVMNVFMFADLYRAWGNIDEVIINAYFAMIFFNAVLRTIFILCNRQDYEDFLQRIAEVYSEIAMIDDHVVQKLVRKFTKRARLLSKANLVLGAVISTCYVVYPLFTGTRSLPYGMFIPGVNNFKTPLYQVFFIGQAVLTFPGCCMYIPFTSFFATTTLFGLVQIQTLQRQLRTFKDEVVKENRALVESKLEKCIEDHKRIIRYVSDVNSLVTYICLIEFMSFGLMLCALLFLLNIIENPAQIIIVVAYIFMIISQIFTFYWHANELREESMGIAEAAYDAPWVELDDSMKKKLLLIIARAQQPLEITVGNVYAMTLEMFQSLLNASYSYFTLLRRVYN
# Chain of Cqui\Orco + Cqui\Or10 (Q309I4 entry or part of it): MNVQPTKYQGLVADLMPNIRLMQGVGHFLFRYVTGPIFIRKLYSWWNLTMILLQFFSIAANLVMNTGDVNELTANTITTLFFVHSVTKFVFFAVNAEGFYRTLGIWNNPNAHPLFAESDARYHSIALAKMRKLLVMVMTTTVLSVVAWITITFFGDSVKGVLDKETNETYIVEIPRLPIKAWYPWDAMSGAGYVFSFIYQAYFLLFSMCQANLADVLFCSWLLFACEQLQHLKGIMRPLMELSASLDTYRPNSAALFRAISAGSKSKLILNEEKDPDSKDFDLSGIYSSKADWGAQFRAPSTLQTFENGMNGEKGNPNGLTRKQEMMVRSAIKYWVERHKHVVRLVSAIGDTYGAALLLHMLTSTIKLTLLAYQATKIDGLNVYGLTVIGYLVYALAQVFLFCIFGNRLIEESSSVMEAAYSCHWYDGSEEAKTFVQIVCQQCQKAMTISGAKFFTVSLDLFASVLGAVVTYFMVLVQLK
Structure (SMILES),"Response amplitude as percentage of response to 100 µM OLC3, Dmel\Orco + Dmel\Or35a (Dmel\Orco + Dmel\Or35a [1]) [%]","Response amplitude as percentage of response to 100 µM OLC3, Dmel\Orco (Dmel\Orco [2]) [%]","Response amplitude as percentage of response to 100 µM OLC3, Cqui\Orco + Cqui\Or10 (Cqui\Orco + Cqui\Or10) [%]","Response amplitude as percentage of response to 100 µM OLC3, Cqui\Orco (Cqui\Orco) [%]","Response amplitude as percentage of response to 100 µM OLC3, Onub\Orco + Onub\Or1 (Onub\Orco + Onub\Or1) [%]",Inhibition of activation of Dmel\Orco by 30 µM OLC12 on co-application (Dmel\Orco [3]; 100 µM compound co-applied with 30 µM OLC12),"Emax at 100 µM (Dmel\Orco + Dmel\Or35a [1]; read-out: Response amplitude as percentage of response to 100 µM OLC3, Dmel\Orco + Dmel\Or35a) [%]","Emax at 100 µM (Dmel\Orco [2]; read-out: Response amplitude as percentage of response to 100 µM OLC3, Dmel\Orco) [%]","Emax at 100 µM (Cqui\Orco + Cqui\Or10; read-out: Response amplitude as percentage of response to 100 µM OLC3, Cqui\Orco + Cqui\Or10) [%]",IC50 (Dmel\Orco + Dmel\Or35a [4]) [µM],IC50 (Dmel\Orco [3]; activated by 30 µM OLC12 (EC39)) [µM]
CCc1ccc(NC(=O)CSc2nnc(-c3cnccn3)n2CC)cc1 [OLC4],4 ± 1,0,0,0,4 ± 2,,,,,,
CCn1c(SCC(=O)Nc2ccc(C)cc2)nnc1-c1cccnc1 [OLC5],4 ± 1,0,16 ± 2,0,4 ± 2,,,,,,
CCn1c(SCC(=O)Nc2cccc(C)c2)nnc1-c1cccnc1 [OLC6],0,0,0,4 ± 2,0,,,,,,
CCn1c(SCC(=O)Nc2ccc(OC)cc2)nnc1-c1cccnc1 [OLC7],4 ± 1,0,4 ± 1,4 ± 2,0,,,,,,
CCc1ccccc1NC(=O)CSc1nnc(-c2cccnc2)n1CC [OLC8],0,0,0,5 ± 3,0,fails to block,,,,,
CCn1c(SCC(=O)Nc2ccc(Br)cc2)nnc1-c1cccnc1 [OLC10],25 ± 7,0,27 ± 16,0,,,,,,,
CCn1c(SCC(=O)Nc2ccc(Cl)cc2)nnc1-c1cccnc1 [OLC11],13 ± 2,0,13 ± 3,0,,,,,,,
CCn1c(SCC(=O)Nc2ccc(C)c(C)c2)nnc1-c1ccncc1 [OLC13],0,0,0,0,,,,,,,
CCn1c(SCC(=O)Nc2ccc(N(C)C)cc2)nnc1-c1ccncc1 [OLC14],,,,0,,,2 ± 1,0,12 ± 2,81 ± 23,25 ± 4
Sc1nnc(-c2cccnc2)[nH]1 [OLC16],0,0,0,3 ± 2,,,,,,,
C=CCn1c(S)nnc1-c1cccnc1 [OLC17],0,0,0,3 ± 2,,,,,,,
Cn1cnnc1-c1ccncc1 [OLC18],0,0,0,0,,,,,,,
CCc1ccc(NC(C)=O)cc1 [OLC19],0,0,0,3 ± 2,,,,,,,
CC(C)c1ccc(NC(=O)CSc2nnnn2C)cc1 [OLC21],0,0,0,0,,,,,,,
Cc1nnc(-c2ccccn2)[nH]1 [OLC23],0,0,8 ± 3,0,,,,,,,
